Measurements as given in US11730743B2, “Protection of cells from degeneration and treatment of geographic atrophy” (University of Kentucky Research Foundation, priority 2012, dated 2023).

Experiments:
NLRP3 = NLRP3 mRNA by real-time RT-PCR in human RPE cells; format: cell-based
Excerpt: mRNA abundance. Transcript abundance was quantified by real-time RT-PCR using an Applied Biosystems 7900 HT Fast Real-Time PCR system using the 2^−ΔΔct method.
Real-time PCR. Total RNA was extracted from tissues or cells using Trizol reagent (Invitrogen) according to manufacturer's recommendations, DNase treated and reverse transcribed (QuantiTect, Qiagen). The RT products (cDNA) were amplified by real-time quantitative PCR (Applied Biosystems 7900 HT Fast Real-Time PCR system) with Power SYBR green Master Mix. Oligonucleotide primers specific for human IL1B, human NLRP3, human 18S rRNA, mouse Myd88, mouse Nlrp3, mouse 1118, and mouse 18S rRNA were used. The QPCR cycling conditions were 50° C. for 2 min, 95° C. for 10 min followed by 40 cycles of a two-step amplification program (95° C. for 15 s and 58° C. for 1 min). At the end of the amplification, melting curve analysis was applied using the dissociation protocol from the Sequence Detection system to exclude contamination with unspecific PCR products. […] For negative controls, no RT products were used as templates in the QPCR and verified by the absence of gel-detected bands. Relative expressions of target genes were determined by the 2^−ΔΔct method.

IL18 = IL18 mRNA by real-time RT-PCR in human RPE cells; format: cell-based
wild-type mice = experiment: Alu RNA- or pAlu-induced RPE degeneration after subretinal injection (fundus photographs, ZO-1 flat mounts); format: in vivo; details: subretinal pAlu, test agent intravitreous
Experimental: Subretinal injection and imaging. Subretinal injections (1 μL) in mice were performed using a Pico-Injector (PLI-100, Harvard Apparatus). In vivo transfection of plasmids was achieved using 10% Neuroporter (Genlantis). Fundus imaging was performed on a TRC-50 IX camera (Topcon) linked to a digital imaging system (Sony). Immunolabeling of RPE flat mounts was performed using antibodies against human zonula occludens-1 (Invitrogen).
Fundus photography. Retinal photographs of dilated mouse eyes were taken with a TRC-50 IX camera (Topcon) linked to a digital imaging system (Sony).
Immunolabeling. Human eyes fixed in 2-4% paraformaldehyde were prepared as eyecups, cryoprotected in 30% sucrose, embedded in optimal cutting temperature compound (Tissue-Tek OCT; Sakura Finetek), and cryosectioned into 10 μm sections. Depigmentation was achieved using 0.25% potassium permanganate and 0.1% oxalic acid. Immunohistochemical staining was performed with the rabbit antibody against NLRP3 (1:100, Sigma Aldrich) or rabbit antibody against Caspase-1 (prediluted, AbCam). Isotype IgG was substituted for the primary antibody to assess the specificity of the staining. Bound antibody was detected with biotin-conjugated secondary antibodies, followed by incubation with ABC reagent and visualized by Vector Blue (Vector Laboratories). Levamisole (Vector Laboratories) was used to block endogenous alkaline phosphatase activity. Slides were washed in PBS, counterstained with neutral red (Fisher Scientific), rinsed with deionized water, air dried, and then mounted in Vectamount (Vector Laboratories). Fluorescent labeling of human tissue was performed with the rabbit antibody against PYCARD (1:50, Clone N-15, Santa Cruz Biotechnology). Immunolabeling was visualized by fluorescently conjugated anti-rabbit secondary antibody (Invitrogen). Tissue autofluorescence was quenched by incubating the sections in 0.3% Sudan black (Fisher Scientific). Sections were mounted in Vectashield with DAPI (Vector Laboratories). Mouse RPE/choroid flat mounts were fixed with 4% paraformaldehyde or 100% methanol, stained with rabbit antibodies against human zonula occludens-1 (1:100, Invitrogen) and visualized with Alexa594 (Invitrogen). All images were obtained using the Leica SP-5 or Zeiss Axio Observer Z1 microscopes.
Subretinal injection. Subretinal injections (1 μL) in mice were performed using a Pico-Injector (PLI-100, Harvard Apparatus). In vivo transfection of plasmids coding for two different Alu sequences (pAlu) or empty control vector (pNull) (Bennett et al., 2008; Kaneko et al., 2011; Shaikh et al., 1997) was achieved using 10% Neuroporter (Genlantis). AAV1-BEST1-Cre (Alexander and Hauswirth, 2008) or AAV1-BEST1-GFP were injected at […] pfu/mL and in vitro transcribed Alu RNA was injected at 0.3 mg/mL.
Drug treatments. siRNAs formulated in siRNA buffer (20 mM KCL, 0.2 mM MgCl2 in HEPES buffer at pH 7.5; Dharmacon) or phosphate buffered saline (PBS; Sigma-Aldrich); the TLR4 antagonist Ultra Pure Rhodobacter sphaeroides LPS (LPS-RS, InvivoGen), a peptide inhibitor of MyD88 homodimerization IMG-2005 (IMGENEX), control inhibitor (IMGENEX), recombinant IL-18 (Medical & Biological Laboratories), neutralizing rat antibodies against mouse IL-1β (IMGENEX), neutralizing rat antibodies against mouse IL-18 (Medical & Biological Laboratories), isotype control IgGs (R&D Systems or eBioscience as appropriate), Caspase-1 inhibitor Z-WEHD-FMK (R&D Systems), Caspase-3 inhibitor Z-DEVD-FMK (R&D Systems), Caspase control inhibitor Z-FA-FMK (R&D Systems), (2R,4R)-APDC (Enzo Life Sciences), Glipizide (Sigma-Aldrich), Glyburide (Sigma-Aldrich), and P2X7 receptor antagonist A438079 (Tocris Bioscience) were dissolved in phosphate buffered saline (PBS; Sigma-Aldrich) or dimethyl sulfoxide (DMSO; Sigma-Aldrich), and injected into the vitreous humor in a total volume of 1 μL with a 33-gauge Exmire microsyringe (Ito Corporation). […]

N[C@@]1(C(=O)O)CN[C@@H](C(=O)O)C1 [APDC, (2R,4R)-APDC]
blocked: pAlu-induced NLRP3 mRNA upregulation (NLRP3) | pAlu-induced IL18 mRNA upregulation (IL18) | pAlu-induced RPE degeneration (wild-type mice)
